Results published in publication PMC10256842, “Empowering drug off-target discovery with metabolic and structural analysis” (Nature Communications, 2023).

Biological target: T1, HPPK (6-Hydroxymethyl-7,8-dihydropterin pyrophosphokinase) (Escherichia coli, UniProt P26281)
T1 construct: gene folK; recombinant HPPK from pET28A, Ni-NTA purified
T1 sequence (P26281 2-159): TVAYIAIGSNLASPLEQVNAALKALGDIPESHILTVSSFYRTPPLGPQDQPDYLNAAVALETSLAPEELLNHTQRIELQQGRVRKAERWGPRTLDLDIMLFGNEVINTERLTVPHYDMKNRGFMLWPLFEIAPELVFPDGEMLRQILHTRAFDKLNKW
Assay: KinaseGlo luminescence ATP-depletion assay; substrate starts the reaction and relieves CD15-3 inhibition
Assay type: biochemical

## Nc1nc2c(c(=O)[nH]1)N=C(CO)CN2 [6-Hydroxymethyl-7,8-dihydropterin]
  KinaseGlo luminescence ATP-depletion assay; substrate starts the reaction and re: HPPK reaction was initiated with the introduction of the substrate, 6-Hydroxymethyl-7,8-dihydropterin in the assay buffer
